System: vascular cGMP
Assay: vasorelaxant activity measured as increase in vascular cGMP in rat aorta after i.v. push, before and after 18 hr continuous i.v. infusion
Type: in vivo, male Sprague-Dawley rats
Conditions: for cGMP Post-infusion / cGMP Pre-infusion: rat aorta, i.v. push, nitroglycerin equimolar doses; for cGMP Post-infusion: after 18 hr continuous i.v. infusion of the same compound; for cGMP Pre-infusion: before 18 hr continuous i.v. infusion
Experimental: Representative for the new compounds, the vasorelaxant activities (measured as the ability of the tested drug to induce an increase in vascular cGMP) of the example compounds 1 to 6 were determined and compared to activity of nitroglycerin under the same experimental conditions following single and sustained exposure of rats to the compound.
For this purpose the compound to be tested was administered, in each case, to 8 male Sprague-Dawley rats (300-400 g) before and after an 18 hr continuous intravenous infusion of the compound. […] After drug administration (i.v. push), the rat was sacrificed, the aorta immediately removed and processed for cGMP measurement as has been described in detail by us. All of the tested new compounds were utilized in nitroglycerin equimolar doses, either before of after the “tolerance” induction period.
The following table summarizes the results obtained following administration of either nitroglycerin or the tested compounds before and after an 18 hr continuous exposure to the same compound: […]

Compound: 1,1′-Bisthiomethyl-3,4-dihydroxy-cyclohexane-dinitrate ester [Compound 4]
- cGMP Post-infusion: 169 ± 13 pmol/g tissue
- cGMP Pre-infusion: 149 ± 11 pmol/g tissue

Compound: O=[N+]([O-])OCC1(CO[N+](=O)[O-])CCSSC1 [Compound 3, 1,1-Diemethanol-dinitrate-3,4-dithiane]
- cGMP Post-infusion: 174 ± 16 pmol/g tissue
- cGMP Pre-infusion: 171 ± 14 pmol/g tissue

Compound: O=[N+]([O-])OCCCCCC1CCSS1 (centres unmarked) [Compound 5, Thioctyl Alcohol Nitrate Ester]
- cGMP Post-infusion: 113 ± 11 pmol/g tissue
- cGMP Pre-infusion: 123 ± 13 pmol/g tissue

Compound: O=[N+]([O-])OCC(CO[N+](=O)[O-])O[N+](=O)[O-] [Nitroglycerin, nitroglycerin, reference compound]
- tolerance to the cGMP-inducing activity (after 18 hr continuous in vivo administration): developed early
- cGMP Post-infusion: 68 ± 9 pmol/g tissue
- cGMP Pre-infusion: 153 ± 13 pmol/g tissue

Compound: 1,2-Dihydroxy-dinitrate-6,8-dithiane [Compound 6]
- cGMP Post-infusion: 179 ± 12 pmol/g tissue
- cGMP Pre-infusion: 193 ± 17 pmol/g tissue
